Reference: ChEMBL document CHEMBL1158294, “Antiplatelet arylnaphthalide lignans from Justicia procumbens” (J Nat Prod, 1996)

Tested on: Platelet
Test: Inhibition of arachidonic acid-induced platelet aggregation in rabbit […] by turbidimetric method
Type: functional, cell-based
Conditions: Oryctolagus cuniculus

Row | IC50 | SMILES
1 | 1.7 µM | COc1c2c(c(-c3ccc4c(c3)OCO4)c3cc4c(cc13)OCO4)C(=O)OC2 [TAIWANIN E METHYL ETHER]
2 | 0.21 µM | COc1ccc2c(c1)c(CC(=O)O)c(C)n2C(=O)c1ccc(Cl)cc1 [INDOMETHACIN]
3 | > 100 µM | COc1cc2c(O)c3c(c(-c4ccc5c(c4)OCO5)c2cc1OC)C(=O)OC3 [DIPHYLLIN]
4 | 18.8 µM | COc1ccc(-c2c3c(c(OC)c4cc5c(cc24)OCO5)COC3=O)cc1OC [CHINENSINAPHTHOL METHYL ETHER]
5 | 1.1 µM | COc1c2c(c(-c3ccc4c(c3)OCO4)c3cc4c(cc13)OCO4)COC2=O [NEOJUSTICIN A]

Second part, the compound before the results:

Row | SMILES | IC50
6 | COc1cc2c(OC)c3c(c(-c4ccc5c(c4)OCO5)c2cc1OC)C(=O)OC3 [JUSTICIDIN A] | 31.7 µM
7 | CC(=O)Oc1ccccc1C(=O)O [ASPIRIN] | 20.3 µM
8 | COc1cc2c(OC)c3c(c(-c4ccc5c(c4)OCO5)c2cc1OC)COC3=O [NEOJUSTICIN B] | 50.8 µM
9 | O=C1OCc2c1c(-c1ccc3c(c1)OCO3)c1cc3c(cc1c2O)OCO3 [TAIWANIN E] | 8 µM
